The source of these data is patent US5130117A, “Radiohalogenated benzazepine derivatives and method of imaging dopamine receptors therewith” (Trustees of the University of Pennsylvania, priority 1991, dated 1992).

Data set [1] has as its target T1, dopamine D-1 receptor (rat striatal membranes) (Rattus norvegicus, UniProt P18901).
T1 construct: Striatal tissues were excised, pooled and homogenized; from tissue; host or cells: striatum of male Sprague-Dawley rats
In words: Competition: inhibition of [^125 I]FISCH binding to rat striatal membranes. Conditions: for Ki: 0.15-0.30 nM [^125 I]FISCH, rat striatal membranes, three to five determinations, read-out: ki (mean + SEM). Here is the method:
indicated compounds in 7-11 concentrations and of membrane preparation
from rat striatum. Each value represenets the mean ± SEM of three to
(§1) Male Sprague-Dawley rats (200-250g) were decapitated, and the brains were removed and placed in ice. Striatal tissues were excised, pooled and homogenized in 100 volumes(w/v) of ice-cold Tris-HCl buffer (50 mM), pH 7.4. The homogenates were centrifuged at 20,000×g for 20 min. The resultant pellets were rehomogenized in the same buffer and centrifuged again. The final pellets were resuspended in assay buffer containing: 50 mM Tris buffer pH 7.4, 120 mM NaCl, 5 mM KCl, 2mM CaCl2 and 1 mM MgCl2.
(§2) The binding assays were performed by incubating 50 μl of tissue preparations containing 40-60μg of protein with appropriate amounts of [^125 l]FISCH ligand and competitors in a total volume of 0.2 ml of the assay buffer. After an incubation period of 20 min at 37° C. (with stirring), the samples were rapidly filtered in the cell harvester (Brandel M-24R) under vacuum through Whatman GF/B glass fiber filters pretreated with 0.2% protamine sulfate and washed with 3×5ml of cold (4° C.) 50 mM Tris-HCl buffer, pH 7.4. […] The filters were counted in a gamma counter (Beckman 5500) at an efficiency of 70%.
(§3) Both Scatchard and competition experiments were analyzed using the iterative non-linear least squares curve-fitting program LIGAND.

The target of data set [2] is T2, dopamine D-1 receptor (rat striatal homogenate) (Rattus norvegicus, UniProt P18901).
T2 construct: Striatal tissues were excised, pooled and homogenized; from tissue; host or cells: striatum of male Sprague-Dawley rats
T2 sequence (P18901 whole entry): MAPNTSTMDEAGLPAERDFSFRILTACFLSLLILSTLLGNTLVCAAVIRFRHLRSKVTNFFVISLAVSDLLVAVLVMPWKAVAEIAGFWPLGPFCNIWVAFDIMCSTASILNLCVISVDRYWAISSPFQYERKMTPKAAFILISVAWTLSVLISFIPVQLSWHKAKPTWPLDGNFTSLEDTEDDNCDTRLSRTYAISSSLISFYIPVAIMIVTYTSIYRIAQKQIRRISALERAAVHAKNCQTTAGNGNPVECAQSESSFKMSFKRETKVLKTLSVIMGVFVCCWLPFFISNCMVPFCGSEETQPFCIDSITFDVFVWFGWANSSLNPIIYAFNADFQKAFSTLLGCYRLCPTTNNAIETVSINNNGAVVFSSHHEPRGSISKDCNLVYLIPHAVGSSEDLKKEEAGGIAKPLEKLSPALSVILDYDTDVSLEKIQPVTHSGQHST
Put plainly: Saturation binding of radioiodinated ligand to rat striatal homogenate. Conditions: for Kd: specific binding, rat striatal homogenate, racemic mixture; for affinity to rat striatal homogenate / Kd compared with [^125 I]IBZP (R-(+), active form): in words; for Kd compared with [^125 I]IBZP (R-(+), active form): similar conditions. Here is the method:
as §1, §2, §3

Data set [3] addresses T1, dopamine D-1 receptor (rat striatal membranes). In words: Competition: inhibition of [^125 I]TISCH binding to rat striatal membranes. Conditions: for Ki: [^125 I]TISCH, rat striatal membranes, read-out: ki (mean + SEM). On the procedure: as §1, §2, §3
Data set [4] in a line: Biodistribution in rats of [^125 I]FISCH after iv injection. In kind it is in vivo, male Sprague Dawley rats. Particulars: rat; for brain uptake: iv. Here is the method: Biodistribution of [^125 l]FISCH was studied in male Sprague Dawley rats (225-300g) which were allowed free access to food and water. While under halothane anesthesia, 0.2 ml of a saline solution containing [^125 l]FISCH was injected directly into the femoral vein, and the rats were sacrificed at various time points post injection by cardiac excision under halothane anesthesia. The organs of interest were removed, weighed and radioactivity was counted using a Beckman gamma automatic counter (Model 4000). The percent dose per organ was calculated by a comparison of the tissue counts to suitably diluted aliquots of the injected material. Total activities of blood and muscle were calculated assuming that they are 7% and 40% of total body weight, respectively.

For data set [5], the system named is D-1 dopamine receptors. Conditions: rat, in vivo; for striatum/cerebellum (ST/CB) ratio: iv.
Experimental: Regional brain distribution in rats was obtained after an iv injection of [^125 l]FISCH. By dissecting, weighing and counting samples from different brain regions (cortex, striatum, hippocampus and cerebellum), % dose/gram of samples was calculated by comparing the sample counts with the counts of the diluted initial dose. The uptake ratio of each region was obtained by dividing % dose/gram of each region with that of the cerebellum.
Data set [6] concerns the target central D-1 dopamine receptors. Conditions: cited from earlier work; for Kd: in vitro binding, rat striatum tissue preparation.
For data set [7] the following is noted: cited from earlier work.
The test system of data set [8] is D-1 dopamine receptors. Particulars: cited from earlier work.
Data set [9] deals with D-1 receptors. In words: Activity of optically resolved isomers of FISCH. Particulars: optical resolution of FISCH isomers. An excerpt: The compounds of this invention can exist as either R- or S- isomers. It is important to note that the aforementioned data were obtained using a racemic mixture of FISCH.
The subject of data set [10] is D-1 receptor. Particulars: ^11 C label, PET, human brain; cited from earlier work.

Entries after “also recorded” stand apart in the source; their conditions may differ. Structures can show the parent of a compound that is named as a salt. Where two headings read alike, the source gives them in different places.

T1 sequence (P18901 whole entry): as above

As for `CN1CCc2cc(I)c(O)cc2C(c2ccccc2)C1` (racemic) [(±) IBZP, reference compound], the Ki in data set [1] turned out to be 13.4 ± 0.54 nM.
On to `CN1CCc2cc(Cl)c(O)cc2C(c2ccc(I)cc2)C1` (racemic) [FISCH, (±)-8-chloro-2,3,4,5-tetrahydro-3-methyl-5-(4'-[^125 I]iodophenyl) -1H-3-benzazepine-7-ol], for which the Kd in [2] is 1.43 nM. The Ki in [1] was 1.71 ± 0.17 nM; in data set [3], 2.07 ± 0.35 nM.
In the case of `CN1CCc2cc(Cl)c(O)cc2C(c2ccc([125I])cc2)C1` (racemic) [FISCH, (±)-8-chloro-2,3,4,5-tetrahydro-3-methyl-5-(4'-[^125 I]iodophenyl) -1H-3-benzazepine-7-ol], the nonspecific binding entry in data set [2] (at Kd, rat striatum, FIG. 2) is listed as “approximately 15%”. In data set [2], the “affinity to rat striatal homogenate” value was “high affinity” and the “Kd compared with [^125 I]IBZP (R-(+), active form)” value is listed as “comparable”. Moreover, the “selectivity for dopamine D-1 receptor” value in data set [1] (in words, from Tables 2 and 3) is given as “high selectivity”. Further, the lung clearance entry in data set [4] (fifteen and sixty minutes) is on record as “rapid clearance”. In data set [4] (in words), the “brain uptake / blood-brain barrier passage” value is recorded as “good brain uptake in rats; also recorded: passes through the blood-brain barrier with ease” and the “in vivo stability (deiodination) compared with [^125 I]IBZP” value was “better in vivo stability”. In addition, the lung uptake result in data set [4] (initial) was “High initial uptake”. The compound further came in with a brain uptake in data set [4] (one hour after injection) of 0.55 % dose/organ. Moreover, the brain uptake in data set [4] (two minutes after injection) came to 2.27 % dose/organ. In data set [4] (one hour post injection), the “brain retention compared with [^125 I]IBZP” value is given as “much better” and the thyroid uptake is reported as 0.04%. Besides, the liver uptake result in data set [4] (throughout the first hour) was “remains high throughout the first hour”. For the same compound, in data set [5], the “ST/CB ratio, change with time” value is reported as “dramatic increase with time”. Further, in data set [5] (2 min), the “striatum/cerebellum (ST/CB) ratio” value turned out to be 1.24. Also, the “striatum/cerebellum (ST/CB) ratio” value in data set [5] (15 min) is reported as 1.80. Besides, the “striatum/cerebellum (ST/CB) ratio” value in [5] (60 min) was determined as 2.47.
On to `CN1CCc2cc(I)c(O)cc2[C@@H](c2ccccc2)C1` [IBZP], for which, in data set [6], the Kd is 0.7 nM. Also, in data set [6] (in words), the “selectivity/specificity for central D-1 dopamine receptors” value was “high specificity for central D-1 dopamine receptors”. Also, the “in vivo and in vitro stability” value in data set [7] (in words, deiodination) is “poor in vivo and in vitro stability”. Also, the “retention time in the brain” value in [7] (in words) was “short retention time in the brain”. Also, the brain uptake is reported as 2.7 %dose/organ in data set [7] (rat, iv, 2 minutes post injection); 1.2 %dose/organ in data set [7] (rat, iv, 15 minutes post injection); 0.8 %dose/organ in data set [7] (rat, iv, 30 minutes post injection); 0.26 %dose/organ in data set [7] (rat, iv, 60 minutes (one hour) post injection). In addition, in [7] (rat, iv), the brain localization entry is on record as “good localization in rat brains”. The thyroid uptake result in data set [7] (rat, later time points) was “high at later time points”; in data set [7] (rat, one hour post injection), 0.1%. Further, the “blockade of specific uptake regions by pretreatment with SCH-23390” value in data set [8] (in vivo autoradiography) is on record as “can be blocked by pretreatment with SCH-23390”. The “regional distribution in rat brain (caudate putamen, accumbens nucleus and substantia nigra)” value in data set [8] (in vivo autoradiography) is recorded as “high uptake”. For the same compound, the “uptake ratio of striatum/cerebellum” value is 1.1 in [8] (rat, thirty seconds after injection) and 5.3 in data set [8] (rat, two hours after injection). Also, in data set [8] (rat), the “striatum/cerebellum uptake ratio, change with time” value is given as “increased with time”.
`CN1CCc2cc(Cl)c(O)cc2[C@@H](c2ccc(I)cc2)C1` [R+ isomer]: the activity of isomer result in data set [9] is listed as “active”.
For the compound `CN1CCc2cc(Cl)c(O)cc2[C@H](c2ccc(I)cc2)C1` [S- isomer], in [9], the activity of isomer entry was “inactive”.
Take `CN1CCc2cc(Cl)c(O)cc2[C@@H](c2ccccc2)C1` [SCH-23390, R-(+)-8-chloro-2,3,4,5-tetrahydro-3-methyl5-phenyl-1H-3-benzazepine-7-ol]: in data set [6], the Kd is 0.36 nM. The regional brain concentration entry in [10] was “highest concentration in the basal ganglia area”.
`CN1CCc2ccc(O)cc2[C@@H](c2ccccc2)C1` [SKF-83692]: in data set [6], the Kd is 197 nM.
Take `CN1CCc2cc(Cl)c(O)cc2C(c2cccc(I)c2)C1` (stereo not drawn) [TISCH]: in data set [2], the “affinity to rat striatal homogenate” value is recorded as “high affinity”; the “Kd compared with [^125 I]IBZP (R-(+), active form)” value was “comparable”; the Kd worked out at 0.35 nM. Moreover, the Ki in data set [3] came to 0.55 ± 0.05 nM. Further, the “selectivity for dopamine D-1 receptor” value in data set [3] (in words, from Tables 2 and 3) was “high selectivity”.
Consider `COc1cccc(OC)c1OCCNCC1COc2ccccc2O1` (stereo not drawn) [WB 4101, 2(2,6-dimethoxyphenoxyethyl)-aminomethyl-1,4-benzodioxane hydrochloride, reference compound], for which the Ki in data set [1] turned out to be 1270 ± 203 nM.

As a reminder, the Ki is the equilibrium dissociation constant of an inhibitor or competing ligand from its target. By Kd is commonly meant a measure of binding affinity in units of concentration.
